Test results from patent publication US7465729B2, “Methods of treatment of menopause and perimenopause using eszopiclone” (Sepracor Inc., priority 2004, dated 2008).

Legend:
conscious dogs = assay: Dose escalation safety study, cardiovascular and respiratory parameters
Experimental: To establish the safety of eszopiclone, a dose escalation study was carried out. Cardiovascular and respiratory parameters were evaluated in conscious dogs following acute intravenous administration of (R)-, (S)- or racemic zopiclone at three doses (3, 5 and 12 mg/kg).

mice = assay: Antimuscarinic activity in vivo: oxotremorine induced salivation; details: doses up to 300 mg/kg, p.o.
Experimental: Eszopiclone was evaluated for antimuscarinic activity in vivo.

[1] = acute intravenous, 3, 5 and 12 mg/kg

Q: Which “cardiotoxicity, as evidenced by the electrocardiogram (ECG)” value (conscious dogs; [1]) does the source give for `CN1CCN(C(=O)O[C@@H]2c3nccnc3C(=O)N2c2ccc(Cl)cn2)CC1` [(R)-zopiclone] here?
A: The value was “No evidence of cardiotoxicity”.

Q: What about the “effect on blood pressure” value (conscious dogs; [1]) of the same molecule?
A: The value was “no effect”.

Q: And the “effect on heart rate” value (conscious dogs; [1])?
A: Its value is “no effect”.

Q: And the “Blood gases and blood chemistries (pH, pCO2, pO2, hematocrit, and lactate)” value (conscious dogs; acute intravenous, 3, 5 and 12 mg/kg, all dose groups)?
A: Its value is “remained unaffected”.

Q: What about the hemodynamic effect (conscious dogs; intravenous, 12 mg/kg) of the same molecule?
A: Its hemodynamic effect is “did not produce a consistent hemodynamic effect”.

Q: What about the “antagonism of oxotremorine induced salivation” value (mice) of the same molecule?
A: Its value is “neither (R)-, (S)-, nor racemic zopiclone significantly antagonized oxotremorine induced salivation”.
